In US20250304973A1, “HIGH-AFFINITY THROMBIN APTAMERS AND METHODS OF USE” (Ayass Bioscience LLC, priority 2024, published 2025):

Key:
[1] = test system: human citrated plasma; test: Activated partial thromboplastin time (APTT) assay in human citrated plasma; assay type: biochemical; settings: 2 uM, 2 h, versus untreated control
Description: 137. Sterile human blood in sodium citrate was purchased from the Rockland Immuno- chemicals, Inc (cat #R214-0050, Pottstown, PA 19464, USA). Plasma was prepared by centrifugation for 10 min at 2000×g. In vitro activity assays were performed on ACLTOP analyzer manufactured by Instrumentation Laboratory, which is a type of coagulation analyzer commonly used in clinical laboratories to measure clotting times and assess coagulation parameters. The ACLTOP analyzer is designed to perform a wide range of coagulation tests, including Factor II activity, prothrombin time (PT), activated partial thromboplastin time (APTT), fibrinogen, and other related assays. ACLTOP analyzer uses HemosIL reagents developed by Instrumentation Laboratory company (Bedford, MA, USA) to perform coagulation tests.
140. […] APTT time was measured using the synthetic phospholipid reagent SynthASIil for quantitative determination in human citrated plasma on an ACLTOP coagulation analyzer manufactured by Instrumentation Laboratory (Bed- ford, MA, USA).
146. Modified aptamers chemically crosslinked with TAG, PEG, and cholesterol entities at the 3′ end, were purchased from IDT (Integrated DNA Technologies, Coralville, IA, USA). The impact of modified AYA1809002 and AYA1809004 aptamers on Factor II activity, PT, and APTT was evaluated using the same protocol as was used for the unmodified aptamers. Additionally, the potential for reversal was investigated using the respective reverse complement for each aptamer.

[2] = target: thrombin over other serine proteases (Homo sapiens, UniProt P00734); test: Selectivity for thrombin over other serine proteases (Table 3); assay type: biochemical; settings: Table 3, AYA1809002
[3] = target: thrombin (Homo sapiens, UniProt P00734); test: Thrombin inhibition IC50 (Table 3); assay type: biochemical; settings: Table 3, AYA1809002
[4] = Major bleeding rate in animal studies (Table 3); assay type: in vivo
[5] = test system: rat whole blood; test: Factor II activity, PT, APPT and TT in rat whole blood; assay type: biochemical; settings: dose-dependent manner
[6] = Storage stability (Table 3); assay type: physicochemical; settings: after 24 months at room temperature
[7] = Onset, consistency and reversal of anticoagulant effect (Table 3); assay type: in vivo; settings: Table 3, AYA1809002
[8] = Pharmacokinetics and renal clearance (Table 3); assay type: in vivo; settings: Table 3, AYA1809002

| Substance | increase in APTT time [1] | selectivity for thrombin over other serine proteases [2] | IC50 [3] [nM] | major bleeding rate [4] | APPT in rat whole blood [5] | Factor II activity in rat whole blood [5] | PT in rat whole blood [5] | TT in rat whole blood [5] | activity maintained on storage [6] | Anticoagulant Effect Consistency: inter-individual variability in aPTT prolongation [7] [% inter-individual] | Onset of Action: peak effect [7] | Renal Clearance [8] [%] |
| --- | --- | --- | --- | --- | --- | --- | --- | --- | --- | --- | --- | --- |
| AYA1809002: ssDNA thrombin aptamer GCGGTGTTGCTGGGGTTGGGAGGTTGGAGGAAGCAATCGC | approximate four-fold increase | >100-fold selectivity | ≤ 0.5 | (≤2% major bleeding | extend | inhibit | extend | extend | Maintain >95% | <15 | Peak effect withing 1 hour | <50 |
| AYA1809004: ssDNA thrombin aptamer TCGTCAAGGTACGGTTGGGGGGGTGGGTGTTGACGTTGAA (DNA, backbone not given here) | approximate four-fold increase | – | – | – | – | – | – | – | – | – | – | – |
